Laboratory results: patent US7767659B2, “Synthesis of naturally occurring ecteinascidins and related compounds” (Pharma Mar, S.A., priority 2002, dated 2010)

Legend:
LoVo = test: cells; settings: Homo sapiens, LoVo, 48 h; for GI50: read-out: LOVO GI50; for CC50: read-out: LOVO LC50; for IC (TGI): read-out: LOVO TGI
Method in brief: (§1)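 Colorimetric SRB read (490 nm) on triplicate wells after 48 h at 37 °C, 5% CO2. Dose range 10 to 10^−8 μg/ml; 5×10^3 cells/well pre-attached 18 h.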

A-549 = test: cells; settings: Homo sapiens, A549, 48 h; for GI50: read-out: A549 GI50; for CC50: read-out: A549 LC50; for IC (TGI): read-out: A549 TGI
Method in brief: as §1

HT-29 = test: cells; settings: Homo sapiens, HT-29, 48 h; for GI50: read-out: HT29 GI50; for CC50: read-out: HT29 LC50; for IC (TGI): read-out: HT29 TGI
Method in brief: as §1

K-562 = test: Inhibition of cells growth by colorimetric assay (SRB); settings: Homo sapiens, K562, 48 h; for GI50: read-out: K562 GI50; for CC50: read-out: K562 LC50; for IC (TGI): read-out: K562 TGI
Method in brief: as §1

LoVo-Dox = test: as above; settings: Homo sapiens, 48 h; for GI50: read-out: LOVO-DOX GI50; for CC50: read-out: LOVO-DOX LC50; for IC (TGI): read-out: LOVO-DOX TGI
Method in brief: as §1

HeLa = test: as above; settings: Homo sapiens, HeLa, 48 h; for GI50: read-out: HELA GI50; for CC50: read-out: HELA LC50; for IC (TGI): read-out: HELA TGI
Method in brief: as §1

LNCaP = test: as above; settings: Homo sapiens, LNCaP, 48 h; for GI50: read-out: LNCAP GI50; for CC50: read-out: LNCAP LC50; for IC (TGI): read-out: LNCAP TGI
Method in brief: as §1

IGROV-ET = test: as above; settings: Homo sapiens, 48 h; for GI50: read-out: IGROV-ET GI50; for CC50: read-out: IGROV-ET LC50; for IC (TGI): read-out: IGROV-ET TGI
Method in brief: as §1

SK-BR-3 = test: as above; settings: Homo sapiens, SK-BR-3, 48 h; for GI50: read-out: SK-BR3 GI50; for CC50: read-out: SK-BR3 LC50; for IC (TGI): read-out: SK-BR3 TGI
Method in brief: as §1

SK-MEL-28 = test: as above; settings: Homo sapiens, SK-MEL-28, 48 h; for GI50: read-out: MEL-28 GI50; for CC50: read-out: MEL-28 LC50; for IC (TGI): read-out: MEL-28 TGI
Method in brief: as §1

HeLa-APL = test: as above; settings: Homo sapiens, 48 h; for GI50: read-out: HELA-APL GI50; for CC50: read-out: HELA-APL LC50; for IC (TGI): read-out: HELA-APL TGI
Method in brief: as §1

DU-145 = test: as above; settings: Homo sapiens, DU-145, 48 h; for GI50: read-out: DU145 GI50; for CC50: read-out: DU145 LC50; for IC (TGI): read-out: DU145 TGI
Method in brief: as §1

PANC-1 = test: as above; settings: Homo sapiens, PANC-1, 48 h; for GI50: read-out: PANC-1 GI50; for CC50: read-out: PANC-1 LC50; for IC (TGI): read-out: PANC-1 TGI
Method in brief: as §1

IGROV-1 = test: as above; settings: Homo sapiens, IGROV-1, 48 h; for GI50: read-out: IGROV GI50; for CC50: read-out: IGROV LC50; for IC (TGI): read-out: IGROV TGI
Method in brief: as §1

Compound: C=CCN1[C@@H]2c3c(cc(C)c(OC)c3O)C[C@H]1[C@H](C#N)N1C2[C@@H]2SC[C@]3(NCCc4cc(OC(=O)OC(C)(C)C)c(OC)cc43)C(=O)OC[C@H]1c1c3c(c(C)c(OC(C)=O)c12)OCO3 (stereo partly drawn) [compound 44]
- GI50 (LoVo): 33.9 nM
- CC50 (LoVo): 11100 nM
- IC (TGI) (LoVo): 143 nM
- GI50 (A-549): 27.4 nM
- CC50 (A-549): 470 nM
- IC (TGI) (A-549): 56.7 nM
- GI50 (HT-29): 38.8 nM
- CC50 (HT-29): 11100 nM
- IC (TGI) (HT-29): 1540 nM
- GI50 (K-562): 7.97 nM
- CC50 (K-562): 11100 nM
- IC (TGI) (K-562): 77.9 nM
- GI50 (LoVo-Dox): 297 nM
- CC50 (LoVo-Dox): 11100 nM
- IC (TGI) (LoVo-Dox): 919 nM
- GI50 (HeLa): 20.2 nM
- CC50 (HeLa): 87.5 nM
- IC (TGI) (HeLa): 42 nM
- GI50 (LNCaP): 4.53 nM
- CC50 (LNCaP): 48 nM
- IC (TGI) (LNCaP): 20.4 nM
- GI50 (IGROV-ET): 49.2 nM
- CC50 (IGROV-ET): 11100 nM
- IC (TGI) (IGROV-ET): 443 nM
- GI50 (SK-BR-3): 3.27 nM
- CC50 (SK-BR-3): 76.1 nM
- IC (TGI) (SK-BR-3): 11.9 nM
- GI50 (SK-MEL-28): 23.4 nM
- CC50 (SK-MEL-28): 90.1 nM
- IC (TGI) (SK-MEL-28): 45.9 nM
- GI50 (HeLa-APL): 25 nM
- CC50 (HeLa-APL): 352 nM
- IC (TGI) (HeLa-APL): 59.6 nM
- GI50 (DU-145): 23.4 nM
- CC50 (DU-145): 11100 nM
- IC (TGI) (DU-145): 71.9 nM
- GI50 (PANC-1): 75.2 nM
- CC50 (PANC-1): 11100 nM
- IC (TGI) (PANC-1): 344 nM
- GI50 (IGROV-1): 32.6 nM
- CC50 (IGROV-1): 11100 nM
- IC (TGI) (IGROV-1): 78 nM

Compound: C=CCN1[C@@H]2c3c(cc(C)c(OC)c3OC(=O)OC(C)(C)C)C[C@H]1[C@H](C#N)N1C2[C@@H]2SC[C@]3(NCCc4cc(OC(=O)OC(C)(C)C)c(OC)cc43)C(=O)OC[C@H]1c1c3c(c(C)c(OC(C)=O)c12)OCO3 (stereo partly drawn) [compound 45]
- GI50 (LoVo): 130 nM
- CC50 (LoVo): 614 nM
- IC (TGI) (LoVo): 283 nM
- GI50 (A-549): 162 nM
- CC50 (A-549): 1500 nM
- IC (TGI) (A-549): 413 nM
- GI50 (HT-29): 83.6 nM
- CC50 (HT-29): 10000 nM
- IC (TGI) (HT-29): 1410 nM
- GI50 (K-562): 17.6 nM
- CC50 (K-562): 10000 nM
- IC (TGI) (K-562): 150 nM
- GI50 (LoVo-Dox): 479 nM
- CC50 (LoVo-Dox): 10000 nM
- IC (TGI) (LoVo-Dox): 3140 nM
- GI50 (HeLa): 16.4 nM
- CC50 (HeLa): 79.7 nM
- IC (TGI) (HeLa): 36.2 nM
- GI50 (LNCaP): 3.83 nM
- CC50 (LNCaP): 51.5 nM
- IC (TGI) (LNCaP): 17.3 nM
- GI50 (IGROV-ET): 86.5 nM
- CC50 (IGROV-ET): 10000 nM
- IC (TGI) (IGROV-ET): 497 nM
- GI50 (SK-BR-3): 2.83 nM
- CC50 (SK-BR-3): 133 nM
- IC (TGI) (SK-BR-3): 7.56 nM
- GI50 (SK-MEL-28): 117 nM
- CC50 (SK-MEL-28): 689 nM
- IC (TGI) (SK-MEL-28): 285 nM
- GI50 (HeLa-APL): 28.4 nM
- CC50 (HeLa-APL): 783 nM
- IC (TGI) (HeLa-APL): 121 nM
- GI50 (DU-145): 35.9 nM
- CC50 (DU-145): 10000 nM
- IC (TGI) (DU-145): 103 nM
- GI50 (PANC-1): 229 nM
- CC50 (PANC-1): 10000 nM
- IC (TGI) (PANC-1): 1240 nM
- GI50 (IGROV-1): 56.9 nM
- CC50 (IGROV-1): 10000 nM
- IC (TGI) (IGROV-1): 392 nM
